Values of other authors as cited in publication PMC7362765 (Accounts of chemical research, 2019).

Test system: DF3
Experiment: oxidation to quinone […], saturation kinetics
Assay type: biochemical, synthetic construct
Conditions: diiron form, ambient O2; recounted from the authors' own ref 19

Km: 2100 µM
SMILES: CC(C)(C)c1cc(O)c(O)c(C(C)(C)C)c1 [compound 6, 3,5-di-tert-butylcatechol]
